{"source": "paper PMC9603750", "about": "“Chalcone-Acridine Hybrid Suppresses Melanoma Cell Progression via G2/M Cell Cycle Arrest, DNA Damage, Apoptosis, and Modulation of MAP Kinases Activity” (International Journal of Molecular Sciences, 2022)", "key": {"MCF-10A [1]": {"system": "MCF-10A", "assay": "MTT assay (metabolic activity)", "type": "cell-based", "settings": "Homo sapiens; MCF-10A noncancer cell line, 72 h incubation", "description": "(§1) Cell lines A2058 (human melanoma lymph node metastasis, cat. 91100402) from ECACC (Public Health England, Salisbury, UK) and BLM (human melanoma lung metastasis a gift from prof. K. Smetana, Institute of Anatomy, Charles University in Prague) were cultured in a medium consisting of high glucose Dulbecco’s Modified Eagle’s Medium (DMEM) and sodium pyruvate (GE Healthcare, Piscataway, NJ, USA). The growth medium was supplemented with a 10% fetal bovine serum (FBS) and antibiotic/antimycotic solution 1 × HyClone™ (GE Healthcare, Chicago, IL, USA). The MCF-10A (human mammary epithelial cells) cell line was cultured in a medium consisting of high glucose Dulbecco’s Modified Eagle’s Medium F12 (DMEM/F12) (Biosera, Kansas City, MO, USA). The growth medium was supplemented with a 10% FBS, antibiotic/antimycotic solution 1 × HyClone™ (GE Healthcare, Chicago, IL, USA), epidermal growth factor (EGF) (20 ng/mL final), hydrocortisone (0.5 μg/mL final) and insulin (10 μg/mL final) (Sigma-Aldrich Chemie, Steinheim, Germany). Cells were cultured in humidified air at 37 °C with atmosphere containing 5% CO2.\n(§2) The half-maximal inhibitory concentration values (IC50) and metabolism inhibition of tested synthetic chalcone derivatives were determined by MTT (3-(4,5-di-methylthiazol-2-yl)2,5-diphenyltetrazolium bromide) colorimetric assay (Sigma-Aldrich Chemie, Steinheim, Germany). Tested cell lines were seeded at a density of 5 × 10^3 cells/well in 96-well culture plates. After 24 h, the tested chalcones in concentrations of 100, 50 and 10 μmol/L were added and incubation proceeded for the next 72 h. In the next step, 10 μL of MTT (5 mg/mL) was added to each well containing cells and incubated for another 4 h at 37 °C during which MTT was metabolized to insoluble formazan in cells. After 4 h, 100 μL of a 10% sodium dodecyl sulphate (SDS) was added to each well and another 24 h were allowed for the formazan crystals to dissolve. The metabolic activity of cells was evaluated by measuring the absorbance at wavelength 540 nm using the automated Cytation™ 3 Cell Imaging Multi-Mode Reader (Biotek, Winooski, VT, USA). Three independent analyses were performed."}, "MCF-10A [2]": {"system": "MCF-10A", "assay": "BrdU cell proliferation assay", "type": "cell-based", "settings": "Homo sapiens; MCF-10A noncancer cell line"}, "BLM [3]": {"system": "BLM", "assay": "BrdU cell proliferation assay", "type": "cell-based, human", "description": "(§3) The BrdU Cell Proliferation Assay is based on the detection of BrdU (5-bromo-2′-deoxyuridine) incorporated into the newly synthesized DNA during the replication process in proliferating cells.\n(§4) The A2058 (5 × 10^3/well) and BLM (5 × 10^3/well) melanoma cells were plated in a 96-well culture plate in 80 μL suitable medium. Twenty-four hours after cell seeding, different concentrations of the chalcone 1C were added ranging from 5–20 μmol/L. After 48 h of treatment, BrdU labelling solution was added to melanoma cells and incubated for another 24 h at 37 °C followed by fixation and incubation with anti-BrdU peroxidase conjugate solution for an additional 90 min in the dark at room temperature. Cells were then washed 3× with washing solution and incubated with TMB (tetramethylbenzidine) substrate solution (all Roche, Basel, Switzerland) for 5 to 30 min according to colour intensity. Finally, the stop solution (25 μL 1 M H2SO4) was added, and the incorporated BrdU was detected with an automated Cytation™ 3 Cell Imaging Multi-Mode Reader (Biotek, Winooski, VT, USA) at 450 nm. Three independent analyses were performed."}, "A2058 [4]": {"system": "A2058", "assay": "BrdU cell proliferation assay", "type": "cell-based, human", "description": "as §3, §4"}, "BLM melanoma cells [5]": {"system": "BLM melanoma cells", "assay": "Flow cytometric analysis of DNA damage (ATM, SMC1, H2A.X phosphorylation)", "type": "cell-based, human", "description": "(§5) The A2058 and BLM melanoma cells were seeded 1 × 10^6 in Petri dishes with complete growth medium and cultivated for 24 h. After cell cultivation, the A2058 cells were treated with chalcone 1C at 10 μmol/L concentration, BLM cells at 20 μmol/L concentration and both melanoma cell lines were treated with DMSO as the negative control at the same concentrations for 24, 48 and 72 h. Adherent and floating cells were harvested, pelleted by centrifugation at 1200 rpm for 5 min. Pellets were resuspended in washing buffer (PBS) and divided for a particular analysis. Afterwards, cells were prepared according to assay kit protocols or fixed with cold 4% paraformaldehyde (15 min) and permeabilized with 90% methanol (10 min on ice) with washing steps (PBS) and stained prior to analysis (Table 5) for 15 min in the dark at room temperature. Fluorescence was detected using a BD FACSCalibur^TM Flow Cytometer (Becton Dickinson, San Jose, CA, USA)."}, "A2058 melanoma cells [6]": {"system": "A2058 melanoma cells", "assay": "Flow cytometric analysis of DNA damage (ATM, SMC1, H2A.X phosphorylation)", "type": "cell-based, human", "description": "as §5"}, "BLM [7]": {"system": "BLM", "assay": "MTT assay (metabolic activity)", "type": "cell-based, human", "description": "as §1, §2"}, "A2058 [8]": {"system": "A2058", "assay": "MTT assay (metabolic activity)", "type": "cell-based, human", "description": "as §1, §2"}, "BLM melanoma cells [9]": {"system": "BLM melanoma cells", "assay": "AO/PI viability assay (fluorescence microscopy)", "type": "cell-based, human", "settings": "1C 20 μmol/L, 24, 48 and 72 h", "description": "(§6) The A2058 and BLM melanoma cells were seeded at a density of 5 × 10^4/well into 6-well culture plates. Twenty-four hours after seeding, A2058 cells were treated with chalcone 1C at 10 μmol/L concentration, BLM cells at 20 μmol/L concentration and both melanoma cell lines were treated with vehicle (DMSO) at the same concentrations. At 24, 48 and 72 h after treatment, the culture medium was removed, the cells were washed with washing buffer (PBS) and fixed with 4% paraformaldehyde (pH 7.2) for 30 min. In the next step, the paraformaldehyde was removed, the cells were washed with PBS and the staining solution (10 μg/mL acridine orange and 10 μg/mL propidium iodide, Sigma-Aldrich) was added to each well for 1 h incubation at room temperature in the dark. Finally, the staining solution was removed, the cells were washed with PBS and apoptosis was observed using an automated Cytation™ 3 Cell Imaging Multi-Mode Reader (Biotek, Winooski, VT, USA)."}, "A2058 melanoma cells [10]": {"system": "A2058 melanoma cells", "assay": "AO/PI viability assay (fluorescence microscopy)", "type": "cell-based, human", "settings": "A2058, 1C 10 μmol/L, 24, 48 and 72 h", "description": "as §6"}, "[11]": {"settings": "Homo sapiens, BLM, 72 h incubation"}, "[12]": {"settings": "Homo sapiens, A2058, 72 h incubation"}, "[13]": {"settings": "A2058, 1C 10 μmol/L, 24, 48 and 72 h"}}, "data": [{"smiles": "COc1cccc(OC)c1C(=O)/C=C/c1c2ccccc2nc2ccccc12", "note": "[Compound 1C, (2E)-3-(acridin-9-yl)-1-(2,6-dimethoxyphenyl)prop-2-en-1-one]", "values": [{"measurement": "IC50", "setting": "MCF-10A [1]", "value": "36.5 ± 0.87", "unit": "µM"}, {"measurement": "IC50", "setting": "MCF-10A [2]", "value": "32.9 ± 1.56", "unit": "µM"}, {"measurement": "IC50", "setting": "BLM [3]; [11]", "value": "16.51 ± 0.01", "unit": "µM"}, {"measurement": "Selectivity index, BLM (BrdU)", "setting": "BLM [3]; MCF-10A vs BLM, calculated on the basis of BrdU results", "value": 1.99}, {"measurement": "IC50", "setting": "A2058 [4]; [12]", "value": "8.4 ± 0.05", "unit": "µM"}, {"measurement": "Selectivity index, A2058 (BrdU)", "setting": "A2058 [4]; MCF-10A vs A2058, calculated on the basis of BrdU results", "value": 3.9}, {"measurement": "Phosphorylation of H2A.X", "setting": "BLM melanoma cells [5]; 1C 20 μmol/L, 24, 48 and 72 h", "value": "significantly induced"}, {"measurement": "Phosphorylation of SMC1", "setting": "BLM melanoma cells [5]; 1C 20 μmol/L, 24, 48 and 72 h", "value": "significant phosphorylation"}, {"measurement": "Phosphorylation of ATM", "setting": "BLM melanoma cells [5]; 1C 20 μmol/L, time-dependent (24, 48 and 72 h)", "value": "significantly induced"}, {"measurement": "Phosphorylation of H2A.X", "setting": "A2058 melanoma cells [6]; [13]", "value": "significantly induced"}, {"measurement": "Phosphorylation of SMC1", "setting": "A2058 melanoma cells [6]; [13]", "value": "significant phosphorylation"}, {"measurement": "Phosphorylation of ATM", "setting": "A2058 melanoma cells [6]; A2058, 1C 10 μmol/L, time-dependent (24, 48 and 72 h)", "value": "significantly induced"}, {"measurement": "IC50", "setting": "BLM [7]; [11]", "value": "17.9 ± 0.87", "unit": "µM"}, {"measurement": "Selectivity index, BLM (MTT)", "setting": "BLM [7]; MCF-10A vs BLM, calculated on the basis of MTT results", "value": 2.0}, {"measurement": "IC50", "setting": "A2058 [8]; [12]", "value": "7.96 ± 0.38", "unit": "µM"}, {"measurement": "Selectivity index, A2058 (MTT)", "setting": "A2058 [8]; MCF-10A vs A2058, calculated on the basis of MTT results", "value": 4.6}, {"measurement": "Proliferation and viability (AO/PI staining)", "setting": "BLM melanoma cells [9]", "value": "significant decrease in proliferation and viability"}, {"measurement": "Proliferation and viability (AO/PI staining)", "setting": "A2058 melanoma cells [10]", "value": "significant decrease in proliferation and viability"}]}]}
